Values joined by “and” are separate entries in the source; they are usually repeats but may differ in a detail not shown here. Equal values may be shown once.
Legend:
[1] = system: LDLR; assay: DIN mouse model: hepatic LDLR gene expression; type: in vivo; design: key to LDLR 2^DDct: expression relative to vehicle group, normalized to 18S; conditions: liver, 20 mg/kg group
Description: (§1) Gene expression analysis. Hepatic expression levels of genes involved in lipid metabolism (FAS, SREBP1, ACC1, SCD1), cholesterol metabolism (HMG-CoAR, LDLR), SREBP proteolysis (SCAP, INSIG1), ER stress (PERK), oxidative stress (NRF2), inflammation (MCP-1), and fibrosis (collagen 1α1) were quantified by RTqPCR. Expression level was normalized to 18S gene expression and relative expression to vehicle group was calculated with the […] method.
(§2) Male C57Bl/6J mice (8 weeks old) were housed in enriched ventilated cages (31×12.5×12.7 cm) throughout the experimental phase. Animals' cages litters were changed at least once a week. Animal were housed 5 per cage on inverted 12-hour light cycle (at 09:00 am lights off), 22±2° C. and 55±10% relative humidity. The acclimation period was 20 days. During the acclimation period, all mice were fed a standard diet (RM1 (E) 801492, SDS) and tap water ad libitum. After the acclimation period, mice were fed with the DIN diet (60% fat, cholesterol enriched) and fructose-enriched tap water ad libitum until the end of the experiment.
(§3) At 6 weeks of diet, mice were 4-hour fasted (09:00 am to 1:00 pm) and blood (150 μl/EDTA) was collected at 01:00 pm by retro-orbital bleeding under isoflurane anesthesia. Mice were then allocated in 2 homogenous groups (n=12/group) according to their plasma levels of ALT (average levels: 685U/L), AST (average levels: 627U/L) and HOMA-IR index (average value: 4.7), into 2 homogenous groups (see values at day 0 in Tables 15A and 15B ALT/AST and Tables 16A and 16B for HOMA-IR). Mice were then treated once daily by oral gavage with vehicle (Group 1) or Compound #37 at 20 mg/kg (Group 2) for 70 days.
(§4) Hepatic expression levels of genes involved in lipid (FAS, SREBP1, ACC1, SCD1), cholesterol metabolism (HMG-CoAR, LDLR), in SREBP proteolysis (SCAP, INSIG1), in ER stress (PERK), oxidative stress (NRF2), and inflammation (MCP-1) were not changed. However, expression of collagen 1α1, involved in liver fibrosis, was reduced by 66% in mice treated with Compound #37 (p<0.05 vs. vehicle).

[2] = Short-term Paigen-diet NASH mouse model: body weight, food intake, mortality; type: in vivo
Description: Results. […] Mice were maintained on specific diet and were sacrificed after 9 days of diet.

[3] = system: NRF2; assay: DIN mouse model: hepatic NRF2 gene expression; type: in vivo; conditions: liver, 20 mg/kg group
Description: as §1, §2, §3, §4

[4] = system: 60% high fat Paigen diet induced NASH mouse model; assay: Short-term Paigen-diet NASH mouse model: liver Oil Red O staining; type: in vivo; conditions: 21 days
Description: To investigate whether Compound #37 prevents the development of pathology associated with NASH and steatosis in an acute exploratory disease model, a study was conducted using a diet-induced acute liver steatosis model in mice. As described below, in this study, C57BL/6J mice were initiated on the Paigen diet and simultaneously treated with Compound #37 (5, 20, and 40 mg/kg/day) or vehicle control (20% HPβCD 10 mL/kg/day) by oral gavage for 21 days.
After acclimation, 8-week old male C57Bl/6J mice (Charles River) weighing about 25 g were randomized in 4 groups according their body weight and treated once daily around noon by oral gavage with vehicle, or Compound #37 at various for 21 days as follows: Group 1: vehicle-20% (2-hydroxypropyl)-β-cyclodextrin (HP-β-CD) (n=10); Group 2: Compound #37, 5 mg/kg (n=10) Group 3: Compound #37, 20 mg/kg (n=10) Group 4: Compound #37, 40 mg/kg (n=10). During the treatment period, body weight and food intake (measured over 24h) were measured 3 times per week and once a week, respectively. During the acclimation, all mice were fed a standard diet (Special Diets Services RM1 (E), product no. 801492) and tap water ad libitum. After the acclimation period, mice were fed until the end of the experiment with a 60% high fat Paigen diet (60 kcal % fat, 1.25% cholesterol, and 0.5% cholate; D11061901, Research Diet) and tap water ad libitum.
One 0.5 cm^3 piece of liver was frozen in OCT in isopentane and stored at −80° C. for neutral lipid coloration with quantification to evaluate accumulation of neutral lipids in the liver. One section (thickness 5-7 μm) per block was deposited on superfrost+slides for Red Oil staining. Red Oil-stained slides were digitalized at ×20 with the Nanozoomer 2.0 HT. Red Oil labeling was quantified (surface, density): the stained slides were analyzed using an image. All the samples were analyzed within the same range of labeling intensity (0-130), allowing comparison between animals. The intensity scale ranged from 0 to 255 grey levels, in which 0 is the value of a black pixel, and 255 is the value of a white pixel. The staining intensity was calculated as the mean intensity of each pixel composing the labeling signal. For each slide, the percentage (%) of labeling was also calculated: %=(Surface of labeling*100)/section area.

[5] = 28-day repeat-dose toxicity study in healthy rats: plasma exposure (AUC24h); type: in vivo, rat; conditions: day 28
Description: In the repeat-dose toxicity study in rats (Compound #37P018), Compound #37 was given at 0 (vehicle control), 50, 100/75, and 200/150 mg/kg/day for 28 days; some animals from each dose group continued into a 28-day recovery period. After 28 days of treatment, liver neutral lipids from treated and control animals were analyzed with Oil Red O staining.
The more pronounced effects in female rats compared with male rats is consistent with the observed higher plasma exposure (>4-fold higher area under the curve over 24 hours [AUC24h]) at day 28 in females compared with males. Evidence of an effect of Compound #37 on leptin concentrations was also observed in female rats in a dose-dependent manner. As animals gain weight, leptin concentrations naturally increase due to its origin from adipose tissue. Female rats treated with Compound #37 had lower concentrations of leptin compared with the vehicle control group during the treatment period (day 4 and day 28), which was not observed after treatment termination and recovery (day 56) (FIG. 7).

[6] = individual animals, normalised to 18S, 20 mg/kg
[7] = individual animals, vs vehicle mean, 20 mg/kg

SMILES: CC(C)Cc1cc(-c2nc(-c3ccc(NS(=O)(=O)C(F)(F)F)cc3Cl)cs2)ccn1 [Compound 37, N-(3-chloro-4-(2-(2-isobutylpyridin-4-yl)thiazol-4-yl)phenyl)-1,1,1-trifluoromethanesulfonamide]
- LDLR Dct [1, 6]: 12.37 and 11.75 and 14.3 and 12.94 and 13.5 and 12.33 and 12.03 and 12.22 and 12.97 and 13.44 and 11.28
- LDLR 2^DDct [1, 7]: 1.65 and 2.54 and 0.43 and 1.11 and 0.76 and 1.7 and 2.09 and 1.84 and 1.09 and 0.79 and 3.52
- LDLR DDct [1, 7]: −0.73 and −1.35 and 1.2 and −0.16 and 0.4 and −0.77 and −1.07 and −0.88 and −0.13 and 0.34 and −1.82
- LDLR (Ct) ([1]; individual animals, 20 mg/kg): 24.92 (2×) and 24.3 and 27.14 and 25.37 and 25.85 and 23.76 and 24.73 and 24.47 and 24.99 and 23.63
- LDLR 2^DDct ([1]; mean, n 11): 1.59
- LDLR (Ct) ([1]; mean, n 11): 24.9
- LDLR DDct ([1]; mean, n 11): −0.45
- LDLR Dct ([1]; mean, n 11): 12.6
- differences in weight vs vehicle control at end of 3-week dosing period ([2]; 5 mg/kg/day and 20 mg/kg/day, surviving animals): no differences in weight
- mice died ([2]; 20 mg/kg/day, group of 10 mice (1 on day 7, 2 on day 9, 1 on day 11)): 4 mice
- death of additional mice by day 9 ([2]; 40 mg/kg/day, group of 10 mice): 3 mice
- death of mice by day 7 ([2]; 40 mg/kg/day, group of 10 mice): 3 mice
- mean weight loss ([2]; 40 mg/kg/day, over 4 days of treatment): > 20%
- mice died ([2]; mouse, in vivo): No mice died
- NRF2 Dct [3, 6]: 10.62 and 10.7 and 12.57 and 11.27 and 11.31 and 10.88 and 11.1 and 10.74 and 12.23 and 11.89 and 9.9
- NRF2 2^DDct [3, 7]: 1.34 and 1.27 and 0.35 and 0.85 and 0.83 and 1.12 and 0.96 and 1.23 and 0.44 and 0.56 and 2.21
- NRF2 DDct [3, 7]: −0.42 and −0.34 and 1.53 and 0.23 and 0.27 and −0.16 and 0.06 and −0.3 and 1.19 and 0.85 and −1.14
- NRF2 (Ct) ([3]; individual animals, 20 mg/kg): 23.17 and 23.25 (2×) and 25.41 and 23.7 and 23.66 and 23.47 and 22.83 and 23.73 and 23.44 and 22.25
- NRF2 2^DDct ([3]; mean, n 11): 1.01
- NRF2 (Ct) ([3]; mean, n 11): 23.5
- NRF2 DDct ([3]; mean, n 11): 0.16
- NRF2 Dct ([3]; mean, n 11): 11.2
- Liver O red Oil staining, % labeling ([4]; 5 mg/kg p.o. daily, group mean): 1.50%
- Liver O red Oil staining, % labeling ([4]; 5 mg/kg p.o. daily, individual animals): 2.08% and 2.02% and 1.19% and 2.18% and 1.64% and 1.09% and 1.16% and 1.50% and 0.70% and 1.39%
- Liver O red Oil staining, % labeling ([4]; 20 mg/kg p.o. daily, group mean): 0.93%
- Liver O red Oil staining, % labeling ([4]; 20 mg/kg p.o. daily, individual animals): 1.53% and 0.81% and 0.29% and 1.11% and 0.92% (2×)
- plasma exposure (AUC24h) in females compared with males [5]: > 4 fold
